The nature of series [1]: Pharmacokinetics after intravenous and oral administration in rats. The series is classed as in vivo. The method, boiled down:
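Rats were dosed 1 or 2 mg/kg IV or 5 or 10 mg/kg orally, as water solution, HPMC/Tween 80, DMSO/saline, MC suspension or capsule. Plasma was sampled from 0.083 or 0.25 h up to 24 h and quantified by LC/MS/MS in MRM mode with ESI.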

For series [2], the target named is JAK1 (h) (Homo sapiens (Human), UniProt P23458). The series is described as follows: JAK1 kinase assay (33P-ATP filter binding, Millipore). The series is classed as biochemical. Put shortly:
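Radiometric assay of γ-33P-ATP incorporation into plate-immobilised MBP; kinase buffer pH 7.6 with 10 mM MgCl2, 10 μM unlabelled ATP typical, enzyme 10 or 20 nM final, 1% DMSO. Reactions ran 1 h at room temperature before scintillation counting. IC50 from 10-point half-log dilution curve, duplicates.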

Series [3] addresses JAK2 (h) (Homo sapiens (Human), UniProt O60674). In words: JAK2 kinase assay (33P-ATP filter binding, Millipore). The class given is biochemical. How it is done: Kinase assays can be performed by measurement of incorporation of γ-^33P ATP into immobilized myelin basic protein (MBP). High binding white 384 well plates (Greiner) are coated with MBP (Sigma #M−1891) by incubation of 60 μL/well of 20 μg/mL MBP in Tris-buffered saline (TBS; 50 mM Tris pH 8.0, 138 mM NaCl, 2.7 mM KCl) for 24 h at 4° C. Plates are washed 3× with 100 μL TBS. Kinase reactions are carried out in a total volume of 34 μL in kinase buffer (5 mM Hepes pH 7.6, 15 mM NaCl, 0.01% bovine gamma globulin (Sigma #I-5506), 10 mM MgCl2, 1 mM DTT, 0.02% TritonX-100). Compound dilutions are performed in DMSO and added to assay wells to a final DMSO concentration of 1%. Each data point is measured in duplicate, and at least two duplicate assays are performed for each individual compound determination. Enzyme is added to final concentrations of 10 nM or 20 nM, for example. A mixture of unlabeled ATP and γ-^33P ATP is added to start the reaction (2×10^6 cpm of γ-^33P ATP per well (3000 Ci/mmole) and 10 μM unlabeled ATP, typically. The reactions are carried out for 1 h at room temperature with shaking. Plates are washed 7× with TBS, followed by the addition of 50 μL/well scintillation fluid (Wallac). Plates are read using a Wallac Trilux counter. This is only one format of such assays; various other formats are possible, as known to one skilled in the art.
The above assay procedure can be used to determine the IC50 for inhibition and/or the inhibition constant, Ki. The IC50 is defined as the concentration of compound required to reduce the enzyme activity by 50% under the condition of the assay. The IC50 value is estimated by preparing a 10 point curve using a 1/2 log dilution series (for example, a typical curve may be prepared using the following compound concentrations: 3 μM, 1 μM, 0.3 μM, 0.1 μM, 0.03 μM, 0.01 μM, 0.003 μM, 0.001 μM, 0.0003 μM and 0 μM).
The kinase assays described herein were performed at Millipore UK Ltd, Dundee Technology Park, Dundee DD2 1SW, UK.

Series [4] can be described thus: Compound stability in human liver microsomes. The class given is in vitro ADME. The settings on record: for half-life at 5 μM: compound 5 μM, NADPH 1.0 mM, 37° C.; for CLint scaled at 5 μM: in vivo CLint extrapolated. Put shortly:
(§1)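 Compound (5 μM) was incubated at 37° C with human or rat liver microsomes (0.5 mg protein/mL) and 1.0 mM NADPH in 100 mM potassium phosphate, pH 7.4, with 0.05% final DMSO. Samples taken at 0–60 min were quantified by LC/MS/MS as % of time zero, and CLint was extrapolated.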

Series [5] can be described thus: Compound stability in rat liver microsomes. The series is classed as in vitro ADME. The settings on record: for half-life at 5 μM: compound 5 μM, NADPH 1.0 mM, 37° C.; for CLint scaled at 5 μM: in vivo CLint extrapolated. The method, boiled down:
as §1

Where [6] appears, read: rat, plasma, iv dosing, dose 1 mg/kg (Ex. 27: 0.72 mg/kg).
[7] abbreviates: human, liver microsomes, pH 7.4, Human liver microsomes 0.5 mg protein/mL.
Setting [8] is: human, liver microsomes, pH 7.4, Human liver microsomes.
The mark [9] stands for this setting: rat, liver microsomes, pH 7.4, Rat liver microsomes 0.5 mg protein/mL.
Setting [10] is: rat, liver microsomes, pH 7.4, Rat liver microsomes.
The mark [11] stands for this setting: pH 7.4, Human liver microsomes 0.5 mg protein/mL.
Setting [12] is: pH 7.4, Rat liver microsomes 0.5 mg protein/mL.

Molecules are shown by their SMILES.

This is an account of results in patent publication US9403801B2 (Calitor Sciences, LLC, priority 2014, dated 2016).

Sequence of JAK1 (h) (P23458 whole entry): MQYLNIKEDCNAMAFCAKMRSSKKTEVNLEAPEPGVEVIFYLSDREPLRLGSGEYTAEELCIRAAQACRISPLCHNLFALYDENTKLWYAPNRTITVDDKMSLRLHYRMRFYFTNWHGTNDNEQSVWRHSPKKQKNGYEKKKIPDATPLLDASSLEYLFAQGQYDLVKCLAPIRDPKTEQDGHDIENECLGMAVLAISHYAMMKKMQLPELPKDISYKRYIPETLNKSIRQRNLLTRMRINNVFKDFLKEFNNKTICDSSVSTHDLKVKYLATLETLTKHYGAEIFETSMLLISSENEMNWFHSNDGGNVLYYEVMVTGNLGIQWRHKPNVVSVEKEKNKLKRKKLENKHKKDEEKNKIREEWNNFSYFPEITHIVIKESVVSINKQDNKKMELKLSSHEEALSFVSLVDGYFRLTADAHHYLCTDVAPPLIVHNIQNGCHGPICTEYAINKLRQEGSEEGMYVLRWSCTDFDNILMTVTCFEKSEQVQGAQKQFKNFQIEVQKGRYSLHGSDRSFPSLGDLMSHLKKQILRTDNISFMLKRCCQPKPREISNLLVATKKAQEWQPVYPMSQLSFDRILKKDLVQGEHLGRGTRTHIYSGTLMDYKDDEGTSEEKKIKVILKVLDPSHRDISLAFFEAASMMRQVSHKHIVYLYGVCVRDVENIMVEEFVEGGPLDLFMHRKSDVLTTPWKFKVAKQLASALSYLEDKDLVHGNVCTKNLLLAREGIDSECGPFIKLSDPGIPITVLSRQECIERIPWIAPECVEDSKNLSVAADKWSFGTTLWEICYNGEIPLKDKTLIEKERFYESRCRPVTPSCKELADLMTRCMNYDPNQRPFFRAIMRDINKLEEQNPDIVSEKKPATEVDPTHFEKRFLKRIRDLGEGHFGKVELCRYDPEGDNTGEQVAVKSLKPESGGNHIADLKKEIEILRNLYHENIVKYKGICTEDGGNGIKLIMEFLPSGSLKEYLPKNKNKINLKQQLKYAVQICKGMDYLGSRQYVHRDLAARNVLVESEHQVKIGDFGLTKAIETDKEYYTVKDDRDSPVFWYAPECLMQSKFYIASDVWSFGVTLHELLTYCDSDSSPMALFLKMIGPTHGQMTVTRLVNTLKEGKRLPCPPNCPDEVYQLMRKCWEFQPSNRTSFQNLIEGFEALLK
Sequence of JAK2 (h) (O60674 whole entry): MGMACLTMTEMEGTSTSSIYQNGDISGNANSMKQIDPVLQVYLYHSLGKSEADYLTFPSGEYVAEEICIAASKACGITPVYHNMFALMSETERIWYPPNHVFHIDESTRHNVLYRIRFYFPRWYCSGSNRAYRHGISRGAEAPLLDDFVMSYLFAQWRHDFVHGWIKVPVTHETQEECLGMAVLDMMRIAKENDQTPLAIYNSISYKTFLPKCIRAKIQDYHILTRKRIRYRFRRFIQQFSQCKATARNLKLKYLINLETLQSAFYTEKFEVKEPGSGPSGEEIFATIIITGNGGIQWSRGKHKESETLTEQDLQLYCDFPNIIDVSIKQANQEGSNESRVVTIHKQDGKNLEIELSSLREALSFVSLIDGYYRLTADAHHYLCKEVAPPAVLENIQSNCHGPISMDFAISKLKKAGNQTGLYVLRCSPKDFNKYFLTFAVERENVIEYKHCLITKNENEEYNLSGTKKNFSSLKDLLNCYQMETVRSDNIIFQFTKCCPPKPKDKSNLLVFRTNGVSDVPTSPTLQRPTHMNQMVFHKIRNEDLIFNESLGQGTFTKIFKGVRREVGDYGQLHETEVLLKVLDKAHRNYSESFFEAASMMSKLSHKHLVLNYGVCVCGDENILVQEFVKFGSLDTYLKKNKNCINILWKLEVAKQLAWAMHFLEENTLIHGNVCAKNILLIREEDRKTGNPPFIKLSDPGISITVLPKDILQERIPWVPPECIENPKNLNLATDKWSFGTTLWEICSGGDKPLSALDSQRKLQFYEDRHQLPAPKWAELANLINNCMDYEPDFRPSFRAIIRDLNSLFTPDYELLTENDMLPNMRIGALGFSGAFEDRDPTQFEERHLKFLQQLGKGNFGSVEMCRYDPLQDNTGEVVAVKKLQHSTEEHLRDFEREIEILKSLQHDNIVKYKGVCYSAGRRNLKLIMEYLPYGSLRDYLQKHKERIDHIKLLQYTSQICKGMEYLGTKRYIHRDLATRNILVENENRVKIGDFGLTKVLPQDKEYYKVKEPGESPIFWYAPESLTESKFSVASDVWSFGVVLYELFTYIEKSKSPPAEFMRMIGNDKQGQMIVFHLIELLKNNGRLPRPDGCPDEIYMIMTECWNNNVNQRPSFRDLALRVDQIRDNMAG

`Cn1cc(Nc2ncc(Cl)c(NC3CC4CN(c5ccc(C#N)cn5)CC4C3)n2)cn1` (stereo not shown) [Ex. 33, 6-(5-((5-chloro-2-((1-methyl-1H-pyrazol-4-yl)amino)pyrimidin-4-yl)amino)hexahydrocyclopenta[c]pyrrol-2(1H)-yl)nicotinonitrile]: the “Clearance (CL) after iv dosing” value in series [1] (iv dosing, dose 1 mg/kg (Ex. 27: 0.72 mg/kg)) was 24.8 mL/min/kg. For the same compound, in series [1] (oral bioavailability), the F was 60.4%. In series [1] (setting [6]), this compound showed an AUC(0-t) of 702 ng·h/mL and a half-life of 147 min. Besides, the Vd in series [1] (rat, plasma, iv dosing, dose 1 mg/kg (Ex. 27: 0.72 mg/kg), read-out: Vss) was determined as 3.33 L/kg. This compound also showed an IC50 in series [2] of 0.4 nM. The compound further came in with an IC50 in series [3] of 3 nM.

As to `Cn1cnc(Nc2ncc(Cl)c(NC3CCC4(CC3)CCN(C(=O)CC#N)CC4)n2)c1` [Ex. 42, 3-(9-((5-chloro-2-((1-methyl-1H-imidazol-4-yl)amino)pyrimidin-4-yl)amino)-3-azaspiro[5.5]undecan-3-yl)-3-oxopropanenitrile], the values for the half-life at 5 μM in series [4] (setting [7]) and in series [5] (setting [9]) were 48.9 min and 31.5 min, respectively. Besides, the CLint scaled at 5 μM in series [4] (setting [8]) is 35.6 mL/min/kg; in series [5] (setting [10]) it was 78.8 mL/min/kg. For the same compound, the IC50 in series [2] is 3 nM; in series [3], 12 nM.

In the case of `Cc1cnc(Nc2cnn(C)c2)nc1NC1CCC2(CC1)CCN(C(=O)CC#N)CC2` [Ex. 25, 3-(9-((5-methyl-2-((1-methyl-1H-pyrazol-4-yl)amino)pyrimidin-4-yl)amino)-3-azaspiro[5.5]undecan-3-yl)-3-oxopropanenitrile], the half-life at 5 μM was 522 min in series [4] (setting [7]) and 16.8 min in series [5] (setting [9]). For the same compound, the CLint scaled at 5 μM in series [4] (setting [8]) is 3.33 mL/min/kg; in series [5] (setting [10]) it was 148 mL/min/kg. For the same compound, the IC50 in series [2] came out at 6 nM; in series [3], 86 nM.

Take `Cn1cc(Nc2ncc(Cl)c(NC3CCC4(CCNC4)CC3)n2)cn1` (single isomer, unassigned) [Ex. 13.3A, 5-chloro-N^2-(1-methyl-1H-pyrazol-4-yl)-N^4-(2-azaspiro[4.5]decan-8-yl)pyrimidine-2,4-diamine]: the values for the IC50 in series [2] and in series [3] were 2 nM and 55 nM, respectively.

On to `Cn1cc(Nc2ncc(Cl)c(NC3CC4CN(C(=O)C(F)(F)F)CC4C3)n2)cn1` (stereo not shown) [Ex. 34, 1-(5-((5-chloro-2-((1-methyl-1H-pyrazol-4-yl)amino)pyrimidin-4-yl)amino)hexahydrocyclopenta[c]pyrrol-2(1H)-yl)-2,2,2-trifluoroethanone], for which the half-life at 5 μM in series [4] (setting [11]) was 19 min; in series [5] (setting [12]), 2.31 min. Also, the CLint scaled at 5 μM in series [4] (pH 7.4, Human liver microsomes) is 91.6 mL/min/kg; in series [5] (pH 7.4, Rat liver microsomes) it was 1080 mL/min/kg. The values for the IC50 in series [2] and in series [3] were 2 nM and 17 nM, respectively.

For `Cn1cnc(Nc2ncc(Cl)c(NC3CC4CN(C(=O)CC#N)CC4C3)n2)c1` (stereo not shown) [Ex. 41], the IC50 in series [2] stood at 20 nM; in series [3] it was 371 nM.

Consider `Cn1cc(Nc2ncc(Cl)c(NC3CC4CN(CC(F)(F)F)CC4C3)n2)cn1` (stereo not shown) [Ex. 35, 5-chloro-N^2-(1-methyl-1H-pyrazol-4-yl)-N^4-(2-(2,2,2-trifluoroethyl)octahydrocyclopenta[c]pyrrol-5-yl)pyrimidine-2,4-diamine], for which the half-life at 5 μM in series [4] (setting [11]) was 6.65 min; in series [5] (setting [12]) it was 2.72 min. Besides, the intrinsic clearance (CLint scaled) at 5 μM is 261 mL/min/kg in series [4] (pH 7.4, Human liver microsomes) and 913 mL/min/kg in series [5] (pH 7.4, Rat liver microsomes). In addition, the IC50 amounted to 2 nM in series [2] and 8 nM in series [3].

Consider `CN(c1nc(Nc2cnn(C)c2)ncc1Cl)C1CCC2(CCCN(C(=O)CC#N)C2)C1` (stereo not shown), for which the IC50 in series [2] turned out to be 3 nM; in series [3], 7 nM.

Regarding `Cc1cnc(Nc2cnn(C)c2)nc1NC1CCC2(CC1)CCN(C(=O)CC#N)C2` (stereo not shown) [Ex. 10, 3-(8-((5-methyl-2-((1-methyl-1H-pyrazol-4-yl)amino)pyrimidin-4-yl)amino)-2-azaspiro[4.5]decan-2-yl)-3-oxopropanenitrile], the half-life at 5 μM came to 1510 min in series [4] (setting [7]) and 52.6 min in series [5] (setting [9]). The CLint scaled at 5 μM was 1.15 mL/min/kg in series [4] (setting [8]) and 47.2 mL/min/kg in series [5] (setting [10]). The results for the IC50 in series [2] and in series [3] were 7 nM and 129 nM, respectively.

As usually defined, the AUC(0-t) is exposure summed from dosing to a finite time, without extrapolation to infinity. A higher AUC(0-t) goes with high exposure. A word on the half-life: it is how long it takes for the measured level to halve. A lower half-life goes with rapid decline. What is called IC50 is the concentration that gives 50% inhibition. A low value points to higher potency. Usually CLint scaled stands for the rate of metabolic loss divided by the concentration.
